In ChEMBL document CHEMBL1201862, “PubChem BioAssay data set” (2004):
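1) Cells in 96-well plates. 2) Compound, 48 h, 5 concentrations. 3) Linear interpolation between surrounding doses. 4) Unreached endpoint = highest concentration. GI50 = concentration required for 50% inhibition of growth.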 Activity calls are given as the source filed them. Cut-off read from the data, not from the text of the source: active = GI50 up to about 1.1 µM and inactive = higher.

Key:
Experiment in all cases: NCI tumour cell line growth inhibition, 48 h
786-0 = test system: 786-0
A549 = test system: A549
ACHN = test system: ACHN
BT-549 = test system: BT-549
CAKI-1 = test system: CAKI-1
CCRF-CEM = test system: CCRF-CEM
COLO 205 = test system: COLO 205
DU-145 = test system: DU-145
EKVX = test system: EKVX
HCC 2998 = test system: HCC 2998
HCT-116 = test system: HCT-116
HCT-15 = test system: HCT-15
HL-60 = test system: HL-60
HOP-62 = test system: HOP-62
HT-29 = test system: HT-29
Hs-578T = test system: Hs-578T
IGROV-1 = test system: IGROV-1
K562 = test system: K562
KM12 = test system: KM12
LOX IMVI = test system: LOX IMVI
M14 = test system: M14
MCF7 = test system: MCF7
MDA-MB-231 = test system: MDA-MB-231
MDA-MB-435 = test system: MDA-MB-435
MDA-N = test system: MDA-N
MOLT-4 = test system: MOLT-4
Malme-3M = test system: Malme-3M
NCI-H226 = test system: NCI-H226
NCI-H23 = test system: NCI-H23
NCI-H460 = test system: NCI-H460
NCI-H522 = test system: NCI-H522
NCI/ADR-RES = test system: NCI/ADR-RES
OVCAR-3 = test system: OVCAR-3
OVCAR-4 = test system: OVCAR-4
OVCAR-5 = test system: OVCAR-5
OVCAR-8 = test system: OVCAR-8
PC-3 = test system: PC-3
RPMI-8226 = test system: RPMI-8226
RXF 393 = test system: RXF 393
SF-268 = test system: SF-268
SF-295 = test system: SF-295
SK-MEL-28 = test system: SK-MEL-28
SK-MEL-2 = test system: SK-MEL-2
SK-MEL-5 = test system: SK-MEL-5
SK-OV-3 = test system: SK-OV-3
SN12C = test system: SN12C
SNB-19 = test system: SNB-19
SNB-75 = test system: SNB-75
SR = test system: SR
SW-620 = test system: SW-620
T47D = test system: T47D
TK-10 = test system: TK-10
U-251 = test system: U-251
UACC-257 = test system: UACC-257
UACC-62 = test system: UACC-62
UO-31 = test system: UO-31
SF-539 = test system: SF-539

CN1CCc2c([nH]c3ccccc23)C1
GI50 (786-0): > 100 µM (inactive)
GI50 (A549): > 100 µM (inactive)
GI50 (ACHN): > 100 µM (inactive)
GI50 (BT-549): > 100 µM (inactive)
GI50 (CAKI-1): > 100 µM (inactive)
GI50 (CCRF-CEM): > 100 µM (inactive)
GI50 (COLO 205): > 100 µM (inactive)
GI50 (DU-145): > 100 µM (inactive)
GI50 (EKVX): > 100 µM (inactive)
GI50 (HCC 2998): > 100 µM (inactive)
GI50 (HCT-116): > 100 µM (inactive)
GI50 (HCT-15): > 100 µM
GI50 (HL-60): > 100 µM (inactive)
GI50 (HOP-62): > 100 µM (inactive)
GI50 (HT-29): > 100 µM (inactive)
GI50 (Hs-578T): > 100 µM (inactive)
GI50 (IGROV-1): > 100 µM (inactive)
GI50 (K562): > 100 µM (inactive)
GI50 (KM12): > 100 µM (inactive)
GI50 (LOX IMVI): > 100 µM (inactive)
GI50 (M14): > 100 µM (inactive)
GI50 (MCF7): > 100 µM (inactive)
GI50 (MDA-MB-231): > 100 µM (inactive)
GI50 (MDA-MB-435): > 100 µM (inactive)
GI50 (MDA-N): > 100 µM (inactive)
GI50 (MOLT-4): > 100 µM (inactive)
GI50 (Malme-3M): 29.4 µM (inactive)
GI50 (NCI-H226): > 100 µM (inactive)
GI50 (NCI-H23): > 100 µM (inactive)
GI50 (NCI-H460): > 100 µM (inactive)
GI50 (NCI-H522): > 100 µM (inactive)
GI50 (NCI/ADR-RES): > 100 µM (inactive)
GI50 (OVCAR-3): > 100 µM (inactive)
GI50 (OVCAR-4): > 100 µM (inactive)
GI50 (OVCAR-5): > 100 µM (inactive)
GI50 (OVCAR-8): > 100 µM (inactive)
GI50 (PC-3): > 100 µM (inactive)
GI50 (RPMI-8226): > 100 µM (inactive)
GI50 (RXF 393): > 100 µM (inactive)
GI50 (SF-268): > 100 µM (inactive)
GI50 (SF-295): > 100 µM (inactive)
GI50 (SK-MEL-28): > 100 µM (inactive)
GI50 (SK-MEL-2): > 100 µM (inactive)
GI50 (SK-MEL-5): > 100 µM (inactive)
GI50 (SK-OV-3): > 100 µM (inactive)
GI50 (SN12C): > 100 µM (inactive)
GI50 (SNB-19): > 100 µM (inactive)
GI50 (SNB-75): 19.7 µM (inactive)
GI50 (SR): > 100 µM (inactive)
GI50 (SW-620): > 100 µM (inactive)
GI50 (T47D): > 100 µM (inactive)
GI50 (TK-10): > 100 µM (inactive)
GI50 (U-251): > 100 µM (inactive)
GI50 (UACC-257): > 100 µM (inactive)
GI50 (UACC-62): > 100 µM (inactive)
GI50 (UO-31): > 100 µM (inactive)

Cc1ccc(S(=O)(=O)N/N=C2\C3CC4CC(C3)C2C4)cc1 (stereo not given)
GI50 (786-0): > 100 µM (inactive)
GI50 (A549): > 100 µM (inactive)
GI50 (BT-549): > 100 µM (inactive)
GI50 (CAKI-1): > 100 µM (inactive)
GI50 (CCRF-CEM): > 100 µM (inactive)
GI50 (COLO 205): > 100 µM (inactive)
GI50 (DU-145): > 10 µM (inactive)
GI50 (HCC 2998): > 100 µM (inactive)
GI50 (HCT-116): > 10 µM (inactive)
GI50 (HCT-15): > 100 µM
GI50 (HL-60): > 100 µM (inactive)
GI50 (HOP-62): > 100 µM (inactive)
GI50 (HT-29): > 100 µM (inactive)
GI50 (Hs-578T): > 100 µM (inactive)
GI50 (IGROV-1): > 100 µM (inactive)
GI50 (K562): > 100 µM (inactive)
GI50 (KM12): > 100 µM (inactive)
GI50 (LOX IMVI): > 100 µM (inactive)
GI50 (M14): > 100 µM (inactive)
GI50 (MCF7): > 100 µM (inactive)
GI50 (MDA-MB-231): > 100 µM (inactive)
GI50 (MDA-MB-435): > 100 µM (inactive)
GI50 (MDA-N): > 100 µM (inactive)
GI50 (MOLT-4): > 100 µM (inactive)
GI50 (Malme-3M): > 100 µM (inactive)
GI50 (NCI-H226): > 100 µM (inactive)
GI50 (NCI-H23): > 100 µM (inactive)
GI50 (NCI-H460): > 100 µM (inactive)
GI50 (NCI-H522): > 100 µM (inactive)
GI50 (NCI/ADR-RES): > 100 µM (inactive)
GI50 (OVCAR-3): > 100 µM (inactive)
GI50 (OVCAR-4): > 100 µM (inactive)
GI50 (OVCAR-5): > 100 µM (inactive)
GI50 (OVCAR-8): > 100 µM (inactive)
GI50 (PC-3): > 100 µM (inactive)
GI50 (RPMI-8226): > 100 µM (inactive)
GI50 (RXF 393): > 100 µM (inactive)
GI50 (SF-295): > 100 µM (inactive)
GI50 (SF-539): > 100 µM (inactive)
GI50 (SK-MEL-28): > 100 µM (inactive)
GI50 (SK-MEL-2): > 100 µM (inactive)
GI50 (SK-MEL-5): > 100 µM (inactive)
GI50 (SK-OV-3): > 100 µM (inactive)
GI50 (SN12C): > 100 µM (inactive)
GI50 (SNB-19): > 100 µM (inactive)
GI50 (SNB-75): > 100 µM (inactive)
GI50 (SR): > 100 µM (inactive)
GI50 (SW-620): > 100 µM (inactive)
GI50 (T47D): > 100 µM (inactive)
GI50 (TK-10): > 100 µM (inactive)
GI50 (U-251): > 100 µM (inactive)
GI50 (UACC-257): > 100 µM (inactive)
GI50 (UACC-62): > 100 µM (inactive)
GI50 (UO-31): > 100 µM (inactive)
